Reference: US20010010818A1, “Methods and formulations for reducing circulating antibodies” (priority 1998, published 2001)

How the values were obtained:
anti-αGal Ig [1] = assay: Removal of anti-αGal Ig from serum by αGal epitope on resin (Sepharose), measured by FACS; format: binding, rhesus monkey; settings: epitope on resin (coupled to Sepharose)
Protocol: (§1) Antibodies. Blood was drawn from healthy normal volunteers. Plasma was separated by centrifugation and allowed to clot. Fibrin was removed and plasma was used immediately or stored in aliquots at −70° C. Rhesus monkey serum (California Regional Primate Research Center, Davis, Calif.) was obtained from blood drawn into vacutainer tubes and allowed to clot. After serum was separated by centrifugation, it was pooled, aliquoted and stored at −20° C. or −70° C. In some experiments, sera was heat-inactivated at 56° C. for 30 minutes to destroy complement hemolytic activity. Antibodies to the αGal epitope were affinity purified on an αGal-Sepharose column, which was prepared by coupling αGal-SH to maleimide-Sepharose (Pierce) through Michael addition chemistry at 10 mg/mL resin. Up to 20 mL pooled NHS […] was applied to a 2 mL volume of packed αGal-Sepharose. After the flow through was collected, the column was washed with 10-20 column volumes or until A280 reached baseline values and eluted with 0.1 M triethanolamine, pH 11.5 into tubes containing 1 M Tris, pH 8.0. The column was immediately washed with 10-20 volumes of phosphate-buffered saline (PBS). Fractions were assessed for protein concentration by Bradford assay. Peak fractions were pooled and dialyzed against PBS. […]

anti-αGal Ig [2] = assay: as above; format: binding, human; settings: epitope on resin (coupled to Sepharose)
Protocol: as §1

OC[C@H]1O[C@H](O[C@H]2[C@@H](O)[C@@H](CO)O[C@@H](OCCOCCOCCS)[C@@H]2O)[C@H](O)[C@@H](O)[C@H]1O [αGal epitope, 2-[2-(2-thioethoxy)ethoxy]ethyl 3-O-(α-D-galactopyranosyl)-β-D-galactopyranoside]
removal of anti-αGal Ig from normal rhesus monkey serum (anti-αGal Ig [1]): > 95% | removal of anti-αGal Ig from human serum (anti-αGal Ig [2]): > 95%
